# Experimental data taken from PMC4860824, “Targeting the γ-/β-secretase interaction reduces β-amyloid generation and ameliorates Alzheimer’s disease-related pathogenesis” (Cell Discovery, 2015).
# Target: T1, presenilin-1 (PS1) (Homo sapiens, UniProt P49768)
# T1 construct: gene PSEN1; PS1-NTF
# Experiment: dose-dependent competition with XYT1032 photo-affinity labelling in HEK293T cells ([…])
# Assay type: cell-based
smiles,measurement,value
"C=C1CCC2(C(=O)O)CC[C@]3(C)C(=CC[C@H]4C3(C)CC[C@H]3C(C)(C)[C@H](O)CC[C@@]34C)[C@@H]2C1 (stereo partly drawn) [3AA, 3-α-Akebonoic acid]",dose-dependent competition with XYT1032 photo-affinity labelling in HEK293T cell,"in the presence of XYT472B or 3AA, the labeling of PS1-NTF was decreased dose dependently"
